Source: article PMC13598332, “Selective activation of tetrodotoxin-sensitive sodium channels by AaH-II drives arrhythmogenic late Na^+ current in the heart” (Europace, 2026)

Key:
[1] = test system: human iPS-derived cardiomyocytes; assay: Automated patch-clamp of Na+ current in human iPS-derived cardiomyocytes; assay type: cell-based
Procedure: The control hiPSC cell line (ITXi002-A; IRX5-Wt[16]; RRID:CVCL_B5QD) was generated from primary dermal fibroblasts and previously characterized.[17–19] hiPSCs were maintained at 37°C, 5% CO2, 21% O2 in StemMacs PSC-Brew XF human medium (Miltenyi Biotec, #130-127-865) on culture plates coated with 0.05 mg/mL Matrigel hESC-Qualified Matrix (Corning, #354277) in DMEM F12 (Gibco, #11320033). At 75% confluency, the cells were passaged using the Gentle Cell Dissociation Reagent (StemCell Technologies, #07174).
We generated right ventricular-like cardioids on 96-well low-attachment plates using the Schmidt et al. (2023) protocol.[20] At D15.5, cardioids were pooled, dissociated, and replated as a monolayer in MW12 plates (Falcon, #353047) coated with Matrigel (Corning, #354277) for automated patch-clamp, and as single cells in 35-mm Petri dishes (NUNC #055055) coated with Matrigel for manual patch-clamp. Immediately before patch-clamp recording, cardiomyocytes were single-cell dissociated using Accutase (Sigma, #A6964).
For human iPSC-derived cardiomyocytes recordings, cells were resuspended at 300 000 cells/mL in a solution composed of 50% culture media and 50% extracellular buffer containing (in mM) 140 NaCl, 4 KCl, 2 CaCl2, 1 MgCl2, 5 glucose, and 10 HEPES (pH 7.4, osmolarity 298 mOsm) supplemented with 5 µM nifedipine. Single-hole, low-resistance chips (3–5 MΩ) were used. The intracellular solution contained (in mM) 10 KCl, 110 KF, 10 NaCl, 1 MgCl2, 1 CaCl2, 10 Ethylene Glycol Tetra-acetic Acid (EGTA), and 10 HEPES (pH 7.2, osmolarity 280 mOsm). Currents were recorded and analysed as previously described for stable cell lines.

hNav1.1 = hNav1.1 (Homo sapiens, UniProt P35498); assay type: cell-based
[2] = test system: human iPS-derived ventricular cardiomyocytes; assay type: cell-based; conditions: 0.1 nM; dynamic clamp, 1.43 Hz, 35–37°C; n = 10
hNav1.6 = hNav1.6 (Homo sapiens, UniProt Q9UQD0); assay type: cell-based
isolated rat heart = assay: Ex vivo cardiac electrophysiological recordings (Langendorff, MEA); conditions: for increase in repolarization area of ventricular local field potential: mean ± SEM
Procedure: Eleven-week-old Wistar-Han rats were first heparinized (heparin sodium, 0.5 U/g i.p.) and then euthanized by i.p. injection of 140 mg/kg pentobarbital (Euthasol®). Hearts were quickly excised and immersed in a cold modified Krebs-Henseleit solution (in mM): 116 NaCl, 5 KCl, 1.1 MgSO4, 7 H2O, 0.35 NaH2PO4, 27 NaHCO3, 10 glucose, and pH 7.4. The aorta was cannulated, and the hearts were perfused on a Langendorff system with warm (36.5–37.5°C) and oxygenated (95% O2/5% CO2) Krebs-Henseleit solution supplemented with 1.8 mM CaCl2, 1 mM lactate, and 0.2 mM pyruvate (control solution) at a constant flow rate of 12 mL/min. Once connected to the Langendorff perfusion system, hearts were perfused with control solution for 10 min to stabilize their activities. Electrical activity of the upper part of the right ventricle was assessed using a 64-electrode array (0.2-mm electrode diameter; 0.36-mm interelectrode distance) connected to an EMS64-USB-1002 amplifier. Single-lead ECG was acquired to monitor global cardiac electrical activity. Data were sampled at 10 kHz per channel and acquired by EMapRecord5 (Mappinglab, Oxford, UK). Data were obtained at baseline (2 min before compound perfusion) and during AaH-II* perfusion for 10 min at various concentrations. Data were analysed using EMapScope5 (Mappinglab, Oxford, UK). Activation times were determined as the point of maximal negative slope. All activation times were related to the timing of the first detected waveform and then used to draw activation maps. An average of three complexes was used for activation time and conduction velocity analyses, while interbeat interval was measured as the average of 10 consecutive intervals. The index of inhomogeneity was calculated as previously described.[23] Arrhythmias were quantified over a period of 2 min in control and after peptide perfusion.

Sequence of hNav1.6 (Q9UQD0 other isoform, or with tags, fused parts or gaps): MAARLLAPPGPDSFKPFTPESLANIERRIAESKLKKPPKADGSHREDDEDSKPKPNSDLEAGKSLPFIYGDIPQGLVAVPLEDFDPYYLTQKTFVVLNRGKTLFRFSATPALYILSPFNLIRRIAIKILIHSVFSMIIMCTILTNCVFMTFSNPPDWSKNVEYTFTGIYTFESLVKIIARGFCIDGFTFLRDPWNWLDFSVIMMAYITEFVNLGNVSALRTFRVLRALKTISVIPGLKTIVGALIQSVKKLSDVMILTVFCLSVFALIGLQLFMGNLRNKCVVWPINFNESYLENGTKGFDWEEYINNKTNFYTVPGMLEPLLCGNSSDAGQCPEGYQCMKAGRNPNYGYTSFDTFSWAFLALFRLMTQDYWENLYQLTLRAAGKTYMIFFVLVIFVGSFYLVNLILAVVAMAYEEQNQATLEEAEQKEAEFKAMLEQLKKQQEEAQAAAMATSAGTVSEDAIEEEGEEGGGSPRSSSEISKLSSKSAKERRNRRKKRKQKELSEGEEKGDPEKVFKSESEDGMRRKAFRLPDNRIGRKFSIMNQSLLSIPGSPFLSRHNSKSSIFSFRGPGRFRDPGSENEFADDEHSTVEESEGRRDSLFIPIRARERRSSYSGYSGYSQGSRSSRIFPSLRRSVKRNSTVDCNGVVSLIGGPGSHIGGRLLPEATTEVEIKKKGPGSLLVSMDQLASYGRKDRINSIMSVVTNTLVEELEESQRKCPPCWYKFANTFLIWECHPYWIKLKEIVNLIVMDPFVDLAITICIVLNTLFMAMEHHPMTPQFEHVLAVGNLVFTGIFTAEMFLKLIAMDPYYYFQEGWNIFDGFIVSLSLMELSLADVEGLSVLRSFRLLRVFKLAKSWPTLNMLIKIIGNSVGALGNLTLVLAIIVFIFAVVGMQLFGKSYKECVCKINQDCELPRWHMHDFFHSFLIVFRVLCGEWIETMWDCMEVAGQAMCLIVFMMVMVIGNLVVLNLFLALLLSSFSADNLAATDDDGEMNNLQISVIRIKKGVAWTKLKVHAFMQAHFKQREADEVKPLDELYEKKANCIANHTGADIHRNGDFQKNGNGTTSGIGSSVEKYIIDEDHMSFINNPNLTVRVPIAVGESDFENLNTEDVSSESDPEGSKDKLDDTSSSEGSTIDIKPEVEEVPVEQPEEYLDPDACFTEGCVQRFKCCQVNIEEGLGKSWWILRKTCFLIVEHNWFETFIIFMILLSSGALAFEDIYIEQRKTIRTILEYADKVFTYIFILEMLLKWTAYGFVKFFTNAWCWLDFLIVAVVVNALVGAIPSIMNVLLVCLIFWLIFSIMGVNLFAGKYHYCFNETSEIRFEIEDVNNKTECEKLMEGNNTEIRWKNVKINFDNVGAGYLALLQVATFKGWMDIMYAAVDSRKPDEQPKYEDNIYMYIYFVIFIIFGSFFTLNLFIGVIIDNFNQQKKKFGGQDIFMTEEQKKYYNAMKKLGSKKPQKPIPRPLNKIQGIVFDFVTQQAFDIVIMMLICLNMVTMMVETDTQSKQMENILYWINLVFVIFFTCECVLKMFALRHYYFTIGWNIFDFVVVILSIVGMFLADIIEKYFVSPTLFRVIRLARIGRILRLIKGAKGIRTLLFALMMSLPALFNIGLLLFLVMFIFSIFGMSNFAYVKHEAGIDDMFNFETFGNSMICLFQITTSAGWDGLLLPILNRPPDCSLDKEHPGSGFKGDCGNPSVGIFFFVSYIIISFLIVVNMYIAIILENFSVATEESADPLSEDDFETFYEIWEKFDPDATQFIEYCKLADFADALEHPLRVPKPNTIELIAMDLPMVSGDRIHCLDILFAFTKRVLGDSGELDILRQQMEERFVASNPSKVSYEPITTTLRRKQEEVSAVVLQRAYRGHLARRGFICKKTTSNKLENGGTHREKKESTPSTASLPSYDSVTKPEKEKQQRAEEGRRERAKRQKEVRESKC

CC[C@H](C)[C@H](NC(=O)[C@H](Cc1ccc(O)cc1)NC(=O)CNC(=O)[C@H](CC(=O)O)NC(=O)[C@H](CCCCN)NC(=O)[C@@H](N)C(C)C)C(=O)N[C@H](C(=O)N[C@@H](CC(=O)O)C(=O)N[C@@H](CC(=O)O)C(=O)N[C@H](C(=O)N[C@@H](CC(N)=O)C(=O)N[C@H]1CSSC[C@@H](C(=O)N[C@@H](Cc2c[nH]cn2)C(N)=O)NC(=O)[C@H](CCCCN)NC(=O)CNC(=O)[C@@H]2CCCN2C(=O)CNC(=O)[C@H](CCCCN)NC(=O)[C@H]([C@@H](C)O)NC(=O)[C@H](CCCNC(=N)N)NC(=O)[C@H](C(C)C)NC(=O)[C@H](Cc2c[nH]cn2)NC(=O)[C@H](CC(=O)O)NC(=O)[C@@H]2CCCN2C(=O)[C@H](CC(C)C)NC(=O)[C@H](CCCCN)NC(=O)[C@H](Cc2ccc(O)cc2)NC(=O)[C@@H]2CSSC[C@@H]3NC(=O)[C@H](CCC(=O)O)NC(=O)[C@H](CCC(=O)O)NC(=O)[C@H](CC(N)=O)NC(=O)[C@@H]4CSSC[C@H](NC(=O)[C@H](C)NC(=O)[C@H](CC(N)=O)NC(=O)CNC(=O)[C@H](Cc5ccc(O)cc5)NC(=O)[C@@H]5CCCN5C(=O)[C@H](CO)NC(=O)[C@H](C)NC(=O)[C@H](Cc5c[nH]c6ccccc56)NC(=O)[C@H](CCC(N)=O)NC(=O)[C@H](CSSC[C@H](NC(=O)[C@H](Cc5ccccc5)NC(=O)[C@H](Cc5ccc(O)cc5)NC(=O)[C@H]([C@@H](C)O)NC1=O)C(=O)NCC(=O)N[C@@H](CCCNC(=N)N)C(=O)N[C@@H](CC(N)=O)C(=O)N[C@@H](C)C(=O)N[C@@H](Cc1ccc(O)cc1)C(=O)N4)NC(=O)[C@H](Cc1ccc(O)cc1)NC(=O)CNC(=O)[C@H](CO)NC(=O)[C@H](CCC(=O)O)NC(=O)CNC(=O)[C@H](CCCCN)NC(=O)[C@H](CC(C)C)NC(=O)[C@H](CCCCN)NC(=O)[C@H]([C@@H](C)O)NC3=O)C(=O)N[C@@H](Cc1ccc(O)cc1)C(=O)N2)C(C)C)C(C)C [AaH-II*]
INaL in human iPS-derived cardiomyocytes ([1]; 0.1 nM AaH-II*): triggered a characteristic INaL
INaL in human iPS-derived cardiomyocytes ([1]; 10 nM AaH-II*): a greater INaL could be recorded
INaL after 1 s depolarization (hNav1.1; 10 nM): maintained INaL after 1 s pulse
shift in voltage-dependence of activation (hNav1.1; 10 nM): large AaH-II*-triggered hyperpolarizing shift in voltage-dependence of activation
maximal INaL stimulation (maximal AUC) (hNav1.1; highest effective AaH-II* concentration): ~19 fold
concentration at which INaL is triggered / becomes noticeable (hNav1.1; representative traces, test 0 mV): 0.1 nM
AP duration APD20, APD50, APD90 [2]: increase the AP duration
maximal diastolic potential, AP amplitude, dV/dtmax [2]: not significantly affected
activation of hNav1.6 current incl. INaL after TTX block (hNav1.6; 10 nM AaH-II* applied after 100 nM TTX): failed to activate any form of current
INaL after 1 s depolarization (hNav1.6; hNav1.6, 10 nM): maintained INaL after 1 s pulse
shift in voltage-dependence of activation (hNav1.6; hNav1.6, 10 nM): large AaH-II*-triggered hyperpolarizing shift in voltage-dependence of activation
concentration at which INaL is triggered / becomes noticeable (hNav1.6; hNav1.6, representative traces, test 0 mV): 0.1 nM
increase in repolarization area of ventricular local field potential (isolated rat heart; 0.1 nM): 40.3 ± 8.0%
arrhythmogenic hearts (hearts with arrhythmias / hearts) (isolated rat heart; 1 nM AaH-II*): 5/7
increase in repolarization area of ventricular local field potential (isolated rat heart; 1 nM): 140.6 ± 43.0%
activation time (isolated rat heart; 10 nM): significantly increases activation time
arrhythmogenic hearts (hearts with arrhythmias / hearts) (isolated rat heart; 10 nM AaH-II*): 6/7
ventricular bradycardia (rhythm reduction) (isolated rat heart; 10 nM, MEA on right ventricle, 10 min perfusion): 1.9 fold
cardiac conduction in the right ventricle (isolated rat heart; 0.1 and 1 nM): do not affect conduction
ventricular interbeat interval (isolated rat heart; 0.1 and 1 nM, MEA on right ventricle, 10 min perfusion): no effect on the interbeat interval
